Results on 3 molecules are retold here after patent US7122668B2, “Platinum complexes and their use in therapy” (priority 2002, dated 2006).

For one series, the system named is calf thymus DNA. The series can be described thus: DNA binding (calf thymus DNA platination). As to conditions: listed as trans-[PtCl2(NH3)(pip)]. As for the experimental part:
The formation of calf thymus DNA platination was also examined. To this end, calf thymus DNA was incubated with different compounds (Table 3) in which the following parameters were determined: […]

The subject of series [1] is Ubiquitin and Heart Myoglobin. As to conditions: 1:1 reaction, 1–2 mM, 10 mM phosphate buffer, pH 6.4, 37° C.
Procedure: Since most platinum(II) derivatives which are administered intravenously become protein bound within 24 hr, the binding kinetics of two model proteins, Ubiquitin (MW 8565) and Heart Myoglobin (MW 16951), to Pt complexes was determined. To this end, a 1:1 reaction between the platinum complexes and the proteins were carried out at 1–2 mM concentrations, in 10 mM phosphate buffer, pH 6.4 at 37° C. Protein binding kinetics were measured directly on the reaction mixtures, by Electrospray Ionization Mass Spectrometry (ESI-MS).
The subject of the next series is plasmid pS16-hGH DNA. Nature of the series: Determination of Pt-DNA adducts by EtBr fluorescence. The following applies: DNA modified 24 hr. Format: binding. The procedure: A plasmid (4.8 kbp) containing a gene coding for human growth hormone, plasmid pS16-hGH, was prepared as previously described^(23). The freshly prepared DNA was analyzed by agarose gel (1%) electrophoresis using post-staining with SYBR Green I fluorescent dye (Molecular Probes, Eugene, Oreg.). […] The ratio of absorbance at 260 nm to that at 280 nm was always between 1.8 and 1.9.
DNA were modified by the platinum complexes in 10 mM NaClO4 (pH 7.0) at 37° C. in the dark for 24 hr. Measurements of EtBr fluorescence were performed on an LS50B luminescence spectrometer (Perkin Elmer, Norwalk, Conn.). Fluorescence measurements of DNA modified by platinum in the presence of EtBr were performed using the excitation wavelength of 546 nm (slit 10 run) and emission wavelength of 590 nm (slit 10 nm) at 25° C. The concentrations were 0.01 mg/ml for DNA and 0.04 mg/ml for EtBr, which corresponded to the saturation of all intercalation sites of EtBr in DNA.
EtBr, as the fluorescent probe, was used to distinguish between perturbations induced in DNA by adducts of platinum (II) compounds^(14). Binding of EtBr by intercalation is blocked in a stoichiometric manner by formation of the bifunctional adducts, as of Cis-Pt, which results in a loss of fluorescence intensity. On the other hand, formation of monofunctional adducts results only in a slight decrease of EtBr fluorescence.

The next series in a line: In vivo toxicity. Further details: species or system BALB/C mice. As to conditions: 5 mg/kg, i.v., three times at weekly intervals.
For the next series, the system named is C-26 colon carcinoma. Nature of the series: In vivo antitumor efficacy. Details: species or system BALB/C mice. As to conditions: 5 mg/kg, three injections at weekly intervals from day 3 after i.p. tumor inoculation. As for the experimental part:
Female BALB/C mice (in the weight range of 17–20 g) were injected i.p. with 1*10^6 C-26 colon carcinomas.
Treatment began at day 3 after tumor inoculation and was repeated twice for a total of three injections at weekly intervals.
Female BALB/C mice (in the weight range of 17–20 gr) were injected i.p. with 1*10^6 C-26 colon carcinomas.
Treatment was as performed according to the schedule described above.

The conditions of series [2]: cited from earlier work.

Consider `C1CCNCC1.N.[Cl][Pt][Cl]` [Complex 1, Trans-[PtCl2(NH3)(piperidine)]], for which, in the series on calf thymus DNA, the “% IEC/adduct, frequency of interstrand crosslinks” value stood at 26% and the “unwinding angle per adduct” value came out at 52.8°. In addition, the “ΔTm, 0.01M Na+” value with calf thymus DNA (rb = 0.05, 0.01M Na+) is listed as “+7.6 0.C”. Also, the “ΔTm, 0.2 M” value in the series with calf thymus DNA (rb = 0.05, 0.2 M) was −1.9 0.C. The “ΔΔεmax, maximum of the positive CD band at around 275 nm” value in the series on calf thymus DNA (rb = 0.05, difference between control and platinated DNA) was 0.15. The “binding to the proteins” value in series [1] was “binds rapidly”.

On to `C1CCN(C2CCNCC2)CC1.N.[Cl][Pt][Cl]` [Complex 3, Trans-[PtCl2(NH3)(4-piperidino-piperidine)]], for which the “decrease of EtBr fluorescence intensity by DNA adducts” value in the series with plasmid pS16-hGH DNA is on record as “The best adduct”. For the same molecule, the “toxicity (animal weight and survival)” value in “In vivo toxicity” is listed as “non-toxic”. In the series with C-26 colon carcinoma, the “Increase in life span” value is 108% and the Survival turned out to be 24 ± 3 days.

Turning to trans-[PtCl(PyAc—N,O)(NH3)], the solubility in water in series [2] is 4 to 5 mM.
